The target in one assay is T1, WT ZAC (Homo sapiens, UniProt Q401N2, A152T).
T1 construct: expressed in transfected cells; host or cells: Xenopus oocytes injected with cRNA (pUNIV vector)
T1 sequence (Q401N2 26-412 A152T): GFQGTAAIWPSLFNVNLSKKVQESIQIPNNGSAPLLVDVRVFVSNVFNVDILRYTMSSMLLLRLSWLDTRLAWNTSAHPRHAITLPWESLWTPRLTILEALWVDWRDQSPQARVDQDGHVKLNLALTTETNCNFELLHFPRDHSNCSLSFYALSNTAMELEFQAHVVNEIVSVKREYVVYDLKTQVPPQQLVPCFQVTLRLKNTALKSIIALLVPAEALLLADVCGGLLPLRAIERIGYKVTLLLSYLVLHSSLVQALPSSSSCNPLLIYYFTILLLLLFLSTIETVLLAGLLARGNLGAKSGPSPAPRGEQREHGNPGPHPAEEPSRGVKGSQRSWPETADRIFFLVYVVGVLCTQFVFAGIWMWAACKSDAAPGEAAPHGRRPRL
In words: TEVC in Xenopus oocytes expressing WT ZAC. The class given is cell-based. The note with it: TC 100 μM. Here is the method:
(§1) The recordings were performed at room temperature.
(§2) Analysis of the data from the TEVC recordings were performed using Clampfit software version 10.5 (Molecular Devices, Crawley, UK) and GraphPad Prism version 7.0c (GraphPad Software, La Jolla, CA). Unless otherwise stated, the inward currents induced by agonists in oocytes were normalized to the maximal response elicited by a specific agonist (agonist Imax) on each oocyte. Concentration-response and concentration-inhibition curves were fitted in GraphPad Prism by nonlinear regression using the equation for sigmoidal dose-response with variable slope. Each data point represents the mean ± S.E.M. value of recordings performed on at least five oocytes in total from at least two different batches. For the data where statistical analysis was performed, a one-way ANOVA was used. The null hypothesis was rejected at P < 0.05, and the differences between the means were analyzed by Tukey’s multiple comparisons test.

Assay [1] deals with ZAC^L9′X mutants (L9′A, L9′V, L9′I, L9′T). In words: TEVC in oocytes, all four L9′X mutants (collective statement). The class given is cell-based, human. The settings on record: TC 100 μM; 1 mM Zn^2+; range over all four mutants. Here is the method: as §1, §2
Fig. 8. Functional importance of the Leu9′ residue in ZAC. […] B. Resting membrane potentials (left) and leak currents (right) recorded from oocytes expressing WT ZAC, ZAC^L9′A, ZAC^L9′T, ZAC^L9′V and ZAC^L9′I. Data are given as mean ± S.E.M. values (n = 40–60). C. […]

The next assay concerns the target T2, ZAC^L9′I (Homo sapiens, UniProt Q401N2, A152T/L270I).
T2 construct: expressed in transfected cells; host or cells: Xenopus oocytes (cRNA injection, pUNIV vector)
T2 sequence (Q401N2 26-412 A152T/L270I): T1 sequence (Q401N2 26-412 A152T) with L245I
In words: TEVC in oocytes, ZAC L9′I mutant. The note with it: TC 100 μM; outward currents compared to WT ZAC and ZAC^L9′A. The class given is cell-based. Here is the method:
as §1, §2

The next assay has as its target T3, ZAC^L9′T (Homo sapiens, UniProt Q401N2, A152T/L270T).
T3 construct: expressed in transfected cells; host or cells: Xenopus oocytes (cRNA injection, pUNIV vector)
T3 sequence (Q401N2 26-412 A152T/L270T): T1 sequence (Q401N2 26-412 A152T) with L245T
In words: TEVC in oocytes, ZAC L9′T mutant. The class given is cell-based. The note with it: TC 100 μM; outward currents compared to WT ZAC and ZAC^L9′A. Here is the method: as §1, §2

For another assay, the target named is T4, ZAC^L9′A (Homo sapiens, UniProt Q401N2, A152T/L270A).
T4 construct: expressed in transfected cells; host or cells: Xenopus oocytes injected with cRNA (pUNIV vector)
T4 sequence (Q401N2 26-412 A152T/L270A): T1 sequence (Q401N2 26-412 A152T) with L245A
Nature of the assay: TEVC in oocytes, ZAC L9′A mutant. The class given is cell-based. The settings on record: TC 100 μM. Here is the method:
as §1, §2

For a further assay, the target named is T5, ZAC^L9′V (Homo sapiens, UniProt Q401N2, A152T/L270V).
T5 construct: expressed in transfected cells; host or cells: Xenopus oocytes (cRNA injection, pUNIV vector)
T5 sequence (Q401N2 26-412 A152T/L270V): T1 sequence (Q401N2 26-412 A152T) with L245V
Nature of the assay: TEVC in oocytes, ZAC L9′V mutant. The class given is cell-based. The settings on record: TC 100 μM; outward currents compared to WT ZAC and ZAC^L9′A. Here is the method: as §1, §2

Substitutions are numbered along the chain they refer to.

Experimental findings from publication PMC11359809, “Probing the molecular basis for signal transduction through the Zinc-Activated Channel (ZAC)” (Biochemical pharmacology, 2021) are described below.

`COc1cc2c3cc1Oc1cc(ccc1O)C[C@@H]1c4c(cc(OC)c(O)c4Oc4ccc(cc4)C[C@@H]3N(C)CC2)CC[N+]1(C)C` [TC, tubocurarine]: the “I100 μM TC (antagonist-evoked current, spontaneous activity)” value on WT ZAC is listed as “small but significant outward currents”; at ZAC^L9′I, “substantially higher amplitudes”; on ZAC^L9′T, “substantially higher amplitudes”; on ZAC^L9′A it was “small but significant outward currents”; on ZAC^L9′V, “substantially higher amplitudes”. Besides, the “I100 μM TC/(IZn2+ max + I100 μM TC) ratio (degree of spontaneous activity)” value in assay [1] was 34–40%.
